Experimental data as given in the supplement of paper PMC5662764.
± gives the standard deviation of the averaged measurements.

Tests used:
Assay in all cases: normalised growth rate inhibition (GR value) relative to DMSO control (GR (1 = untreated growth, 0 = cytostasis, <0 = cytotoxic)); higher = less growth inhibition
Conditions in all cases: 72 h
[1] = test system: BT20
Procedure: (§1)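 Breast cancer cell lines (BT-20, Hs 578T, MCF 10A, MCF7, MDA-MB-231, SK-BR-3) were plated in 384-well plates and treated 24 h later with drugs at six concentrations (0.04-10 µM). Viable cells were counted by Hoechst/dead-cell-stain imaging at 0 and 72 h. Counts were normalised to DMSO controls on the same plate to give the relative cell count and the growth-rate inhibition (GR) value; technical plate triplicates were averaged for each biological replicate.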

[2] = test system: HS578T
Procedure: as §1

[3] = test system: MCF10A
Procedure: as §1

[4] = test system: MCF7
Procedure: as §1

[5] = test system: MDAMB231
Procedure: as §1

[6] = test system: SKBR3
Procedure: as §1

SMILES	normalised growth rate inhibition ([1]; 0.04 µM)	normalised growth rate inhibition ([1]; 0.12 µM)	normalised growth rate inhibition ([1]; 0.37 µM)	normalised growth rate inhibition ([1]; 1.11 µM)	normalised growth rate inhibition ([1]; 3.33 µM)	normalised growth rate inhibition ([1]; 10 µM)	normalised growth rate inhibition ([2]; 0.04 µM)	normalised growth rate inhibition ([2]; 0.12 µM)	normalised growth rate inhibition ([2]; 0.37 µM)	normalised growth rate inhibition ([2]; 1.11 µM)	normalised growth rate inhibition ([2]; 3.33 µM)	normalised growth rate inhibition ([2]; 10 µM)	normalised growth rate inhibition ([3]; 0.04 µM)	normalised growth rate inhibition ([3]; 0.12 µM)	normalised growth rate inhibition ([3]; 0.37 µM)	normalised growth rate inhibition ([3]; 1.11 µM)	normalised growth rate inhibition ([3]; 3.33 µM)	normalised growth rate inhibition ([3]; 10 µM)	normalised growth rate inhibition ([4]; 0.04 µM)	normalised growth rate inhibition ([4]; 0.12 µM)	normalised growth rate inhibition ([4]; 0.37 µM)	normalised growth rate inhibition ([4]; 1.11 µM)	normalised growth rate inhibition ([4]; 3.33 µM)	normalised growth rate inhibition ([4]; 10 µM)	normalised growth rate inhibition ([5]; 0.04 µM)	normalised growth rate inhibition ([5]; 0.12 µM)	normalised growth rate inhibition ([5]; 0.37 µM)	normalised growth rate inhibition ([5]; 1.11 µM)	normalised growth rate inhibition ([5]; 3.33 µM)	normalised growth rate inhibition ([5]; 10 µM)	normalised growth rate inhibition ([6]; 0.04 µM)	normalised growth rate inhibition ([6]; 0.12 µM)	normalised growth rate inhibition ([6]; 0.37 µM)	normalised growth rate inhibition ([6]; 1.11 µM)	normalised growth rate inhibition ([6]; 3.33 µM)	normalised growth rate inhibition ([6]; 10 µM)
O=C(NOC[C@H](O)CO)c1ccc(F)c(F)c1Nc1ccc(I)cc1F	0.907 ± 0.095	0.864 ± 0.059	0.838 ± 0.1	0.708 ± 0.14	0.565 ± 0.086	0.439 ± 0.064	0.513 ± 0.088	0.402 ± 0.055	0.328 ± 0.023	0.247 ± 0.061	0.119 ± 0.078	0.0542 ± 0.11	0.263 ± 0.072	0.184 ± 0.072	0.175 ± 0.077	0.134 ± 0.083	0.0915 ± 0.085	0.0555 ± 0.074	0.608 ± 0.044	0.539 ± 0.02	0.503 ± 0.05	0.442 ± 0.039	0.254 ± 0.06	0.0358 ± 0.091	0.605 ± 0.043	0.413 ± 0.029	0.264 ± 0.033	0.0779 ± 0.1	-0.0448 ± 0.12	-0.0975 ± 0.13	0.953 ± 0.066	0.902 ± 0.057	0.913 ± 0.049	0.728 ± 0.027	0.445 ± 0.05	0.196 ± 0.14
NC1(c2ccc(-c3nc4ccn5c(=O)[nH]nc5c4cc3-c3ccccc3)cc2)CCC1 [MK-2206]	0.974 ± 0.087	0.902 ± 0.12	0.678 ± 0.13	0.583 ± 0.17	0.453 ± 0.2	0.08 ± 0.29	0.8934 ± 0.0036	0.803 ± 0.035	0.577 ± 0.21	0.665 ± 0.064	0.638 ± 0.053	0.458 ± 0.29	0.99 ± 0.038	0.972 ± 0.036	0.705 ± 0.22	0.892 ± 0.067	0.833 ± 0.082	0.429 ± 0.09	0.616 ± 0.12	0.502 ± 0.086	0.278 ± 0.096	0.291 ± 0.12	0.176 ± 0.093	-0.104 ± 0.14	0.968 ± 0.039	0.904 ± 0.039	0.821 ± 0.05	0.806 ± 0.061	0.757 ± 0.051	0.391 ± 0.35	0.761 ± 0.12	0.603 ± 0.084	0.484 ± 0.06	0.429 ± 0.048	0.283 ± 0.059	-0.0652 ± 0.015
O=C(Nc1cccc(Nc2ncc(Br)c(NCCc3cnc[nH]3)n2)c1)N1CCCC1 [BX-912]	0.8964 ± 0.0089	0.943 ± 0.034	0.936 ± 0.034	0.939 ± 0.032	0.839 ± 0.12	0.355 ± 0.13	0.967 ± 0.021	0.906 ± 0.045	0.756 ± 0.16	0.375 ± 0.042	0.143 ± 0.076	-0.103 ± 0.14	0.95 ± 0.0022	0.92 ± 0.062	0.648 ± 0.3	0.206 ± 0.067	0.172 ± 0.068	0.0883 ± 0.057	0.816 ± 0.053	0.866 ± 0.058	0.731 ± 0.17	0.459 ± 0.1	0.293 ± 0.063	0.0193 ± 0.03	0.903 ± 0.0098	0.901 ± 0.083	0.694 ± 0.32	0.404 ± 0.23	0.194 ± 0.14	-0.0228 ± 0.27	0.724 ± 0.1	0.719 ± 0.089	0.175 ± 0.19	-0.0702 ± 0.08	-0.0412 ± 0.053	-0.0312 ± 0.089
COc1cc(N2CCC(N3CCN(C)CC3)CC2)ccc1Nc1ncc(Cl)c(Nc2ccccc2S(=O)(=O)C(C)C)n1 [NVP-TAE684]	1.04 ± 0.012	0.776 ± 0.2	0.972 ± 0.088	0.829 ± 0.13	0.447 ± 0.3	0.133 ± 0.28	0.885 ± 0.041	0.61 ± 0.098	0.609 ± 0.073	0.351 ± 0.11	0.111 ± 0.042	-0.201 ± 0.15	0.889 ± 0.06	0.754 ± 0.19	0.647 ± 0.14	0.555 ± 0.12	0.429 ± 0.14	0.123 ± 0.1	0.553 ± 0.22	0.133 ± 0.13	-0.0107 ± 0.12	-0.108 ± 0.053	-0.129 ± 0.021	-0.198 ± 0.18	0.908 ± 0.035	0.737 ± 0.11	0.694 ± 0.089	0.389 ± 0.14	0.117 ± 0.14	-0.228 ± 0.21	1.08 ± 0.047	0.782 ± 0.2	0.928 ± 0.069	0.691 ± 0.16	0.197 ± 0.2	-0.232 ± 0.068
